ChEMBL document CHEMBL4330100, “Selective estrogen receptor degraders with novel structural motifs induce regression in a tamoxifen-resistant breast cancer xenograft” (Bioorg Med Chem Lett, 2019)
Calls of active or inactive are those of the source. No cut-off for these calls is given here.

Key:
Estrogen receptor = target: T1, Estrogen receptor (Homo sapiens, UniProt P03372); assay: Induction of ERalpha degradation in human MCF7 cells in phenol red free RPMI medium containing 5% charcoal-stripped FBS incubated for 4 hrs by IRDye 800CW/DRAQ5 dye based in-cell Western assay
T1 sequence (P03372 whole entry): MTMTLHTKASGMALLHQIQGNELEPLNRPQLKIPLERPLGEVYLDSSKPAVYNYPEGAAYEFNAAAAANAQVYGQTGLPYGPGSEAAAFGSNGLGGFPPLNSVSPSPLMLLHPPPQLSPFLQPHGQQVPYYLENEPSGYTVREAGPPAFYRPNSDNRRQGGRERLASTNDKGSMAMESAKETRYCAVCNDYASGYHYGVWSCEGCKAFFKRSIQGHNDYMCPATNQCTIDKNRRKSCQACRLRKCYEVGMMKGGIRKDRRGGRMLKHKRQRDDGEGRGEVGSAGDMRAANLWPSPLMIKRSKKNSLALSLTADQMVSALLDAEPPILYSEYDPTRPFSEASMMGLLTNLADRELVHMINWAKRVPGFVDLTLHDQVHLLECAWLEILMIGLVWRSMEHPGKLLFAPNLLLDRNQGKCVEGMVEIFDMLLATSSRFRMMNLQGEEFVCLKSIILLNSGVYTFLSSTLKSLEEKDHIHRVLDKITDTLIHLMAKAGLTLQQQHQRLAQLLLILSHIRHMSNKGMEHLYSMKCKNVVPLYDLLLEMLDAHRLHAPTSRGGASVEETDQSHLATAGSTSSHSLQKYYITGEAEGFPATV

MCF7 = assay: Antiproliferative activity against human MCF7 cells assessed as reduction in cell proliferation measured after 5 days by Cell-titer-Glo assay; format: functional, cell-based; settings: MCF7, 120 h
Rattus norvegicus [1] = assay: In vivo antagonist activity at estrogen receptor in CD-IGS rat assessed as inhibition of estrogen-stimulated uterine growth at 1 mg/kg, po administered daily 15 mins before estrogen treatment for 3 days and measured 24 hrs post last dose relative to ARN-180; format: functional
[2] = AUC in CD-1 mouse at 10 mg/kg, po; format: ADME, organism-based; settings: in vivo
[3] = Oral bioavailability in CD-1 mouse at 10 mg/kg; format: ADME, organism-based; settings: in vivo; for bioavailability: CD-1, mouse
[4] = Plasma clearance in CD-1 mouse at 3 mg/kg, iv; format: ADME, organism-based
[5] = Volume of distribution at steady state in CD-1 mouse at 3 mg/kg, iv; format: ADME, organism-based; settings: in vivo; for Vd: CD-1, mouse, read-out: Vdss
[6] = Half life in CD-1 mouse at 3 mg/kg, iv; format: ADME, organism-based; settings: in vivo; for half-life: CD-1, mouse
[7] = Fraction unbound in 10% CD-1 mouse plasma at 10 uM measured after 20 to 24 hrs by equlibrium dialysis method; format: ADME, cell-free; settings: 10% plasma
Homo sapiens = assay: Antitumor activity against human TamR1 cells xenografted in nu/nu mouse assessed as tumor regression at 30 mg/kg, po administered daily for 4 weeks; format: functional, organism-based
Rattus norvegicus [8] = assay: In vivo antagonist activity at estrogen receptor in CD-IGS rat assessed as reduction in 17alpha-ethynylestradiol-stimulated increase in uterine wet weight at 1 mg/kg, po administered daily 15 mins before 17alpha-ethynylestradiol treatment for 3 days and measured 24 hrs post last dose relative to basal level; format: functional
[9] = target: T2, Estrogen receptor (Homo sapiens) (UniProt P03372); assay: Induction of ERalpha degradation in human MCF7 cells in phenol red free RPMI medium containing 5% charcoal-stripped FBS at 2 to 10 uM incubated for 4 hrs by IRDye 800CW/DRAQ5 dye based in-cell Western assay relative to fulvestrant
T2 sequence (whole entry): T1 sequence (P03372 whole entry)

[10] = AUC in CD-1 mouse at 10 mg/kg, po administered at truncated timecourse (1, 4, 24 hrs); format: ADME, organism-based; settings: in vivo
[11] = Oral bioavailability in CD-1 mouse at 10 mg/kg administered at truncated timecourse (1, 4, 24 hrs); format: ADME, organism-based; settings: in vivo
[12] = Plasma clearance in CD-1 mouse at 2 mg/kg, iv administered as cassette dose; format: ADME, organism-based
[13] = Volume of distribution at steady state in CD-1 mouse at 2 mg/kg, iv administered as cassette dose; format: ADME, organism-based; settings: in vivo, read-out: Vdss
[14] = Half life in CD-1 mouse at 2 mg/kg, iv administered as cassette dose; format: ADME, organism-based; settings: in vivo

Structure (SMILES) | EC50 (Estrogen receptor) | IC50 (MCF7) | Efficacy [9] | Efficacy (Rattus norvegicus [1]) | other results
O=C(O)/C=C/c1ccc(/C(=C(\c2ccccc2)C2CCC2)c2ccc(-c3cncs3)cc2)cc1 | 1.7 nM | 9.2 nM |  |  | Efficacy (Rattus norvegicus [8]): 89%
CC/C(=C(/c1ccc(/C=C/C(=O)O)cc1)c1ccn2nncc2c1)c1ccccc1 | 340 nM | > 500 nM | 86% |  | 
CC/C(=C(/c1ccc(/C=C/C(=O)O)cc1)c1ccc(-c2cc[nH]n2)cc1)c1ccccc1 | 99 nM | 440 nM | 86% |  | 
O=C(O)/C=C/c1ccc(/C(=C(\c2ccc(F)cc2Cl)C2CCC2)c2ccc(N3CCOCC3)cc2)cc1 | 1.6 nM | 5 nM |  | 90% | 
CC/C(=C(/c1ccc(/C=C/C(=O)O)cc1)c1ccc2c(cnn2C)c1)c1ccccc1 | 140 nM | 300 nM | 84% |  | 
CC/C(=C(\c1ccccc1)c1ccc(/C=C/C(=O)O)cc1)c1ccccc1 |  |  | 85% |  | 
CC/C(=C(/c1ccc(/C=C/C(=O)O)cc1)c1ccc(N2CCCCC2)cc1)c1ccccc1 | 190 nM | 450 nM | 90% |  | 
CC/C(=C(/c1ccc(/C=C/C(=O)O)cc1)c1ccc2ncsc2c1)c1ccccc1 | 240 nM | > 500 nM | 86% |  | 
CC/C(=C(/c1ccc(/C=C/C(=O)O)cc1)c1ccc2sncc2c1)c1ccccc1 | 200 nM | > 500 nM | 90% |  | 
CC/C(=C(/c1ccc(/C=C/C(=O)O)cc1)c1ccc(-c2nccs2)cc1)c1ccccc1 | 83 nM | 290 nM | 91% |  | 
CC/C(=C(/c1ccc(/C=C/C(=O)O)cc1)c1ccc2[nH]ncc2c1)c1ccc(F)cc1Cl [BRILANESTRANT] |  |  |  |  | half-life [6]: 4.6 h; fraction unbound at 10 µM [7]: 0.011
COc1ccc(/C(=C(\c2ccc(/C=C/C(=O)O)cc2)c2ccc(-c3cn[nH]c3)cc2)C2CCC2)c(Cl)c1 | 1.5 nM | 5.1 nM |  | 93% | AUC at 24 h [10]: 18000 ng·h/mL; bioavailability [11]: 52%; clearance [12]: 4.8 mL/min/kg; Vd [13]: 0.6 L/kg; half-life [14]: 3 h; fraction unbound at 10 µM [7]: 0.002
CC/C(=C(/c1ccc(/C=C/C(=O)O)cc1)c1ccc2nccn2c1)c1ccccc1 | 75 nM | 170 nM | 86% |  | 
N#Cc1cc(Cl)ccc1/C(=C(\c1ccc(/C=C/C(=O)O)cc1)c1ccc(-c2cncs2)cc1)C1CCC1 | 1.9 nM | 4.3 nM |  |  | Efficacy (Rattus norvegicus [8]): 94%
CC/C(=C(/c1ccc(/C=C/C(=O)O)cc1)c1ccn2nccc2c1)c1ccccc1 | 350 nM | > 500 nM | 90% |  | 
O=C(O)/C=C/c1ccc(/C(=C(\c2ccc(C(F)(F)F)cc2Cl)C2CCC2)c2ccc(N3CCOCC3)cc2)cc1 | 1.9 nM | 6.9 nM |  |  | Efficacy (Rattus norvegicus [8]): 93%
CC/C(=C(/c1ccc(/C=C/C(=O)O)cc1)c1ccc2ocnc2c1)c1ccccc1 | 460 nM | > 500 nM | 86% |  | 
CC/C(=C(/c1ccc(/C=C/C(=O)O)cc1)c1ccc2ccccc2c1)c1ccccc1 | 57 nM | 180 nM | 91% |  | 
CC/C(=C(/c1ccc(/C=C/C(=O)O)cc1)c1ccc2sc(C)nc2c1)c1ccccc1 | 150 nM | > 500 nM | 88% |  | 
CC/C(=C(/c1ccc(/C=C/C(=O)O)cc1)c1ccc(N2CCN(C)CC2)cc1)c1ccccc1 | 90 nM | 220 nM | 85% |  | 
CC/C(=C(/c1ccc(/C=C/C(=O)O)cc1)c1ccc2cncn2c1)c1ccccc1 | 260 nM | > 500 nM | 86% |  | 
O=C(O)/C=C/c1ccc(/C(=C(\c2ccc(F)cc2Cl)C2CCC2)c2ccc3nccn3c2)cc1 | 1.5 nM | 4.4 nM |  |  | Efficacy (Rattus norvegicus [8]): 90%
CC/C(=C(/c1ccc(/C=C/C(=O)O)cc1)c1ccc(-n2ccnc2)cc1)c1ccccc1 | 300 nM | 380 nM | 89% |  | 

More lines, main results first:

EC50 (Estrogen receptor) | IC50 (MCF7) | Efficacy [9] | Structure (SMILES) | Efficacy (Rattus norvegicus [1]) | other results
0.6 nM | 2.1 nM |  | COc1ccc(/C(=C(\c2ccc(/C=C/C(=O)O)cc2)c2ccc(N3CCOCC3)cc2)C2CCC2)c(Cl)c1 | 92% | AUC ([2]; CD-1, mouse, read-out: AUC): 40000 ng·h/mL; bioavailability [3]: > 100%; clearance [4]: 5.1 mL/min/kg; Vd [5]: 1.5 L/kg; half-life [6]: 2.9 h; fraction unbound at 10 µM [7]: 0.004; Activity (Homo sapiens): Active
1.1 nM | 2.9 nM |  | O=C(O)/C=C/c1ccc(/C(=C(\c2ncc(C(F)(F)F)cc2Cl)C2CCC2)c2ccc3scnc3c2)cc1 | 92% | 
0.8 nM | 1.4 nM |  | N#Cc1ccc(/C(=C(\c2ccc(/C=C/C(=O)O)cc2)c2ccc3scnc3c2)C2CCC2)c(Cl)c1 | 92% | 
1 nM | 2.6 nM |  | O=C(O)/C=C/c1ccc(/C(=C(\c2ccc(C(F)(F)F)cc2Cl)C2CCC2)c2ccc3scnc3c2)cc1 |  | Efficacy (Rattus norvegicus [8]): 93%
0.3 nM | 0.7 nM |  | COc1ccc(/C(=C(\c2ccc(/C=C/C(=O)O)cc2)c2ccc3nccn3c2)C2CCC2)c(Cl)c1 | 93% | AUC ([2]; mouse): 8400 ng·h/mL; F ([3]; mouse): 69%; Vdss ([5]; mouse): 0.9 L/kg; t1/2 ([6]; mouse): 1.2 h; fraction unbound at 10 µM [7]: 0.015; Activity (Homo sapiens): inactive
1.1 nM | 2.9 nM |  | O=C(O)/C=C/c1ccc(/C(=C(\c2ccc(F)cc2Cl)C2CCC2)c2ccc(-c3cn[nH]c3)cc2)cc1 | 91% | 
0.4 nM | 0.9 nM |  | N#Cc1cc(Cl)ccc1/C(=C(\c1ccc(/C=C/C(=O)O)cc1)c1ccc2scnc2c1)C1CCC1 | 91% | 
0.8 nM | 4.2 nM |  | O=C(O)/C=C/c1ccc(/C(=C(\c2ccc(F)cc2Cl)C2CCC2)c2ccc(-c3cncs3)cc2)cc1 | 91% | 
0.7 nM | 3 nM |  | O=C(O)/C=C/c1ccc(/C(=C(\c2ccc(F)cc2Cl)C2CCC2)c2ccc3scnc3c2)cc1 | 91% | 
1.1 nM | 4.4 nM |  | N#Cc1cc(Cl)ccc1/C(=C(\c1ccc(/C=C/C(=O)O)cc1)c1ccc(-c2cn[nH]c2)cc1)C1CCC1 |  | Efficacy (Rattus norvegicus [8]): 94%
0.8 nM | 1.8 nM |  | COc1ccc(/C(=C(\c2ccc(/C=C/C(=O)O)cc2)c2ccc(-c3cncs3)cc2)C2CCC2)c(Cl)c1 | 93% | AUC at 24 h [10]: 3800 ng·h/mL; fraction unbound at 10 µM [7]: 0.001
0.4 nM | 0.9 nM |  | COc1ccc(/C(=C(\c2ccc(/C=C/C(=O)O)cc2)c2ccc3scnc3c2)C2CCC2)c(Cl)c1 | 94% | AUC ([2]; CD-1, mouse, read-out: AUC): 75000 ng·h/mL; bioavailability [3]: 80%; clearance [4]: 1.8 mL/min/kg; Vd [5]: 0.3 L/kg; half-life [6]: 3.2 h; fraction unbound at 10 µM [7]: 0.002; Activity (Homo sapiens): Active
0.7 nM | 2.2 nM |  | N#Cc1ccc(/C(=C(\c2ccc(/C=C/C(=O)O)cc2)c2ccc(-c3cn[nH]c3)cc2)C2CCC2)c(Cl)c1 |  | Efficacy (Rattus norvegicus [8]): 94%
